Key:
[1] = target: Proto-oncogene tyrosine-protein kinase Src (Homo sapiens) (UniProt P12931); test: In vitro percent inhibition of c-Src tyrosine kinase at 10 uM concentration of compound dissolved in 100% DMSO using 5''-[gamma-33P]-triphosphate
[2] = target: Mitogen-activated protein kinase 3 (Homo sapiens) (UniProt P27361); test: In vitro percent inhibition of Mitogen-activated protein kinase 3 at 10 uM concentration of compound dissolved in 100% DMSO using 5''-[gamma-33P]-triphosphate
[3] = target: RAF proto-oncogene serine/threonine-protein kinase (Homo sapiens) (UniProt P04049); test: In vitro percent inhibition of RAF proto-oncogene serine/threonine-protein kinase at 10 uM concentration of compound dissolved in 100% DMSO using 5''-[gamma-33P]-triphosphate
Sequence of RAF proto-oncogene serine/threonine-protein kinase (Homo sapiens) (P04049 whole entry): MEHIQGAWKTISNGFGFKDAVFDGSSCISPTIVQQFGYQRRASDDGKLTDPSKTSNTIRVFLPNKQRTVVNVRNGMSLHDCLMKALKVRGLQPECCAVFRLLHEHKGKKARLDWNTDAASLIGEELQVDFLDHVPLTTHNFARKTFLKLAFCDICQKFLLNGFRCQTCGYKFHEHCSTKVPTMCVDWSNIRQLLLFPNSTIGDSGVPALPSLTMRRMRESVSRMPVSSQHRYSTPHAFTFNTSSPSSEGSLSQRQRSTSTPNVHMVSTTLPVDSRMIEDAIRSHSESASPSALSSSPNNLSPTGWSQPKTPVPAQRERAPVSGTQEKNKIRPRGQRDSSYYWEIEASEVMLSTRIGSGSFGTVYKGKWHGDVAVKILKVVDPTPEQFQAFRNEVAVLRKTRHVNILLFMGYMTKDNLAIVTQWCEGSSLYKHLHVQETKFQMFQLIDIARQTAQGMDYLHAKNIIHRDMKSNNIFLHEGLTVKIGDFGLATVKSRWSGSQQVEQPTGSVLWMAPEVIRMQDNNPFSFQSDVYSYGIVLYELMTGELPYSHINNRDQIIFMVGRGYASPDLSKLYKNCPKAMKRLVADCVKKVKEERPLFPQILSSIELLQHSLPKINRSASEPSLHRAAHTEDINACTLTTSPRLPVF

[4] = target: RAC-alpha serine/threonine-protein kinase (Homo sapiens) (UniProt P31749); test: In vitro percent inhibition of Protein kinase B, alpha at 10 uM concentration of compound dissolved in 100% DMSO using 5''-[gamma-33P]-triphosphate
Sequence of RAC-alpha serine/threonine-protein kinase (Homo sapiens) (P31749 whole entry, canonical isoform): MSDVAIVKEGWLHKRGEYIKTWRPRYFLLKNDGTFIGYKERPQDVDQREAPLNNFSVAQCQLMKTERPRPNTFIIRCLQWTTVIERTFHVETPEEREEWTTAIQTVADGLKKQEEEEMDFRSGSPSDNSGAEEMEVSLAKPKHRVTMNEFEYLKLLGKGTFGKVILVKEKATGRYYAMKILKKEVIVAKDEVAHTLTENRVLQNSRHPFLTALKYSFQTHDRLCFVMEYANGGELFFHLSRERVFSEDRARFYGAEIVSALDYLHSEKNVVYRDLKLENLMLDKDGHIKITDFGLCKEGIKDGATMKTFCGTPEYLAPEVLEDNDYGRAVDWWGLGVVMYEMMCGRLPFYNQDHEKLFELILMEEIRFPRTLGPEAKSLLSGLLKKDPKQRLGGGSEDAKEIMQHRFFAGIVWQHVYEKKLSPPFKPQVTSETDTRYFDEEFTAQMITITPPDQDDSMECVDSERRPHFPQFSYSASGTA

[5] = target: Casein kinase I isoform alpha (Homo sapiens) (UniProt P48729); test: In vitro percent inhibition of Casein kinase 1 alpha at 10 uM concentration of compound dissolved in 100% DMSO using 5''-[gamma-33P]-triphosphate
[6] = target: Platelet-derived growth factor receptor beta (Homo sapiens) (UniProt P09619); test: In vitro percent inhibition of Platelet-derived growth factor receptor, beta polypeptide at 10 uM concentration of compound dissolved in 100% DMSO using 5''-[gamma-33P]-triphosphate
Sequence of Platelet-derived growth factor receptor beta (Homo sapiens) (P09619 whole entry): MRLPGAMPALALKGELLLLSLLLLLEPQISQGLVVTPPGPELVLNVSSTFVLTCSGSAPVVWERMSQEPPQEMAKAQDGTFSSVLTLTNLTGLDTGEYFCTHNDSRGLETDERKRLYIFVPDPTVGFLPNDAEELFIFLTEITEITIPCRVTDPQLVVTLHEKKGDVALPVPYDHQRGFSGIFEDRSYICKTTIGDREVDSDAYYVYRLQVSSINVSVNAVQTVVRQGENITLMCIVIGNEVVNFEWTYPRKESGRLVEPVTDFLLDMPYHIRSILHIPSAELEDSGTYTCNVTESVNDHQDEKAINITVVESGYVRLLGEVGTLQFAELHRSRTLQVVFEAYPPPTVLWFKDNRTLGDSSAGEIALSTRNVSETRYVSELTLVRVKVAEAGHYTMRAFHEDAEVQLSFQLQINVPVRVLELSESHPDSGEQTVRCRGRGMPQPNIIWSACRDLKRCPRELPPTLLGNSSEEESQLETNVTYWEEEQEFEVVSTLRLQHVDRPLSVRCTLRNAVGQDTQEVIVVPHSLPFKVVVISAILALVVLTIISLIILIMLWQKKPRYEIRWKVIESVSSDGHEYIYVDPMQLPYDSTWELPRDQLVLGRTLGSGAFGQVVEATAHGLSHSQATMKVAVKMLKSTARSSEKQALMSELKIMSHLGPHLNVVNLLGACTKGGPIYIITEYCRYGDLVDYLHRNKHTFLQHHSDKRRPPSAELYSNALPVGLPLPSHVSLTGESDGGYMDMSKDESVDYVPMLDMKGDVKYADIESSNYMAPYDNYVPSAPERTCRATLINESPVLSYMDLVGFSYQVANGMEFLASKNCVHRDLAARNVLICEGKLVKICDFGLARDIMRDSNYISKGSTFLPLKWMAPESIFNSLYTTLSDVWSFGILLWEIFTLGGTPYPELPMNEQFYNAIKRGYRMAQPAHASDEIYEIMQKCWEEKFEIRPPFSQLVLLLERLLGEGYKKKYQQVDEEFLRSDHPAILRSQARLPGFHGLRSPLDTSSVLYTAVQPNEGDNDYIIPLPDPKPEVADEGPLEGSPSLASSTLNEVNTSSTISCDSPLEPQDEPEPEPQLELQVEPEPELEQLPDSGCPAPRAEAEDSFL

[7] = Partition coefficient (logP); assay type: physicochemical; settings: octanol/water
[8] = target: T1, Inhibitor of nuclear factor kappa-B kinase subunit beta (Homo sapiens) (UniProt O14920); test: In vitro percent inhibition of I-kappa-B-kinase beta at 10 uM concentration of compound dissolved in 100% DMSO using 5''-[gamma-33P]-triphosphate
T1 sequence (whole entry): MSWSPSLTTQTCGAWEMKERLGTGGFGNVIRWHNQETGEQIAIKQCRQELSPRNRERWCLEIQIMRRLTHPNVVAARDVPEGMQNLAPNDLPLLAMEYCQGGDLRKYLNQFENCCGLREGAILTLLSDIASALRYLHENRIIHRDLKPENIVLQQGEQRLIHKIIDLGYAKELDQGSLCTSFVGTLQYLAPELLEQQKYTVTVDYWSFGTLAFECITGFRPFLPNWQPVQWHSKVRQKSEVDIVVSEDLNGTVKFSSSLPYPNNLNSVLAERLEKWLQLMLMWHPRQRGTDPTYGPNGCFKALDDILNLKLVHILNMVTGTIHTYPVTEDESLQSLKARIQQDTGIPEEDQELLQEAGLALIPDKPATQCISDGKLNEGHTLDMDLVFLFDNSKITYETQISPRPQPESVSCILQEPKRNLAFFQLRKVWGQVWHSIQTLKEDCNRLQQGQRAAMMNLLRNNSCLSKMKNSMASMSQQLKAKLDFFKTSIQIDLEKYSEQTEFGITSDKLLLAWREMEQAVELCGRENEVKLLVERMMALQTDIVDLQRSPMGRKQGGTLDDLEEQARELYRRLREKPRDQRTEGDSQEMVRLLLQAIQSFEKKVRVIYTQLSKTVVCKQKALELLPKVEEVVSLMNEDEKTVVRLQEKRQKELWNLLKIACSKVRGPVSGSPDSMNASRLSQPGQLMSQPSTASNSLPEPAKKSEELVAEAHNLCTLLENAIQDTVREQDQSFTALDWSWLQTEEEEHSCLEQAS

[9] = In vitro percent inhibition of Ribosomal S6 kinase 1 at 10 uM concentration of compound dissolved in 100% DMSO using 5''-[gamma-33P]-triphosphate
[10] = target: Epidermal growth factor receptor (Homo sapiens) (UniProt P00533); settings: 10 uM
Sequence of Epidermal growth factor receptor (Homo sapiens) (P00533 whole entry): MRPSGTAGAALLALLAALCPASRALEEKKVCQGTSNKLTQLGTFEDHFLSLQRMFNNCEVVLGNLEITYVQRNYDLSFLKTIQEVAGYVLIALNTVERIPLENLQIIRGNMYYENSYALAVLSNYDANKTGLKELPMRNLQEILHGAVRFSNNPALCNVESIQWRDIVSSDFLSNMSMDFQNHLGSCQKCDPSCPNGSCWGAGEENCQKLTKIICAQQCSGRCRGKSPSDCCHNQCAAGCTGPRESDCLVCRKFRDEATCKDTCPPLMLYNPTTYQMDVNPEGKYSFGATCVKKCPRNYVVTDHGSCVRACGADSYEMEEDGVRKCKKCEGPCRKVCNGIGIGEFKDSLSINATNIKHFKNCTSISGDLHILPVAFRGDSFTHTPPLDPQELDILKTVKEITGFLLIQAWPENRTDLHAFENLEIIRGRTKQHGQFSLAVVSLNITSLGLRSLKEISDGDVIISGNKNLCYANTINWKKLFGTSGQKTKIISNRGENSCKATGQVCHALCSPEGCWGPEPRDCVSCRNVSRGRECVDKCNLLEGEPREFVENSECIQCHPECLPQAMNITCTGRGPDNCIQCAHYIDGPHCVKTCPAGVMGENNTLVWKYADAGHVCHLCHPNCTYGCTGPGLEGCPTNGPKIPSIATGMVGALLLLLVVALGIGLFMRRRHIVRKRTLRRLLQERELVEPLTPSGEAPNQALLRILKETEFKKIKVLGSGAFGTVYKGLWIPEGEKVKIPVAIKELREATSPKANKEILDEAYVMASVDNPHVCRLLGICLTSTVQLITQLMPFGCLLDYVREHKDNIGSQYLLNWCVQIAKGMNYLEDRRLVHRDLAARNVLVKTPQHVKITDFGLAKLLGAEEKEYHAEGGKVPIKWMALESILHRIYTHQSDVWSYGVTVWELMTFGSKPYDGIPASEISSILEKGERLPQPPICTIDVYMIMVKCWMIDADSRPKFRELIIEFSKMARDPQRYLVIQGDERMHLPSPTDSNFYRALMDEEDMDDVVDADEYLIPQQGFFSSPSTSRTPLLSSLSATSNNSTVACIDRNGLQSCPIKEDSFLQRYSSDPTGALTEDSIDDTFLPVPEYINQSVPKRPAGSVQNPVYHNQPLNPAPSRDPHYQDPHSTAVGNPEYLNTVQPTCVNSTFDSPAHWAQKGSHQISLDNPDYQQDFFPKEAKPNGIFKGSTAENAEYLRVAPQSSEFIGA

[11] = target: Rho-associated protein kinase 2 (Homo sapiens) (UniProt O75116); test: In vitro percent inhibition of Protein kinase ROCK2 at 10 uM concentration of compound dissolved in 100% DMSO using 5''-[gamma-33P]-triphosphate
[12] = target: Mast/stem cell growth factor receptor Kit (Homo sapiens) (UniProt P10721); test: In vitro percent inhibition of v-kit Hardy-Zuckerman 4 feline sarcoma viral oncogene homolog at 10 uM concentration of compound dissolved in 100% DMSO using 5''-[gamma-33P]-triphosphate
[13] = target: Ribosomal protein S6 kinase (P70S6K) (Homo sapiens) (UniProt Q9UBS0+P23443); test: In vitro percent inhibition of Ribosomal protein S6 kinase at 10 uM concentration of compound dissolved in 100% DMSO using 5''-[gamma-33P]-triphosphate; assay type: protein-complex assay
[14] = target: Glycogen synthase kinase-3 beta (Homo sapiens) (UniProt P49841); test: In vitro percent inhibition of Glycogen synthase kinase 3 beta at 10 uM concentration of compound dissolved in 100% DMSO using 5''-[gamma-33P]-triphosphate
Sequence of Glycogen synthase kinase-3 beta (Homo sapiens) (P49841 whole entry, looked up): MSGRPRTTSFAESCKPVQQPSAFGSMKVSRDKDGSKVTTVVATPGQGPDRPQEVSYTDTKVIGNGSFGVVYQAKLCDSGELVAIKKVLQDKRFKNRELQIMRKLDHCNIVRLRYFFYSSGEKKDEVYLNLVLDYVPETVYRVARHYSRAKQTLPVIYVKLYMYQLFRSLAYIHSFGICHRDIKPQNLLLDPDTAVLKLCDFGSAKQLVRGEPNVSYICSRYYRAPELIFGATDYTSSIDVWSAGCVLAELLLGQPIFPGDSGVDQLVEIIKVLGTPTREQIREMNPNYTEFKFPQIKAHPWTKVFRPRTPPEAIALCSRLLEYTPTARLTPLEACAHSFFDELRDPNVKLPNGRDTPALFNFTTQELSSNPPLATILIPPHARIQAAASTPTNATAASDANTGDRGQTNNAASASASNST

[15] = In vitro percent inhibition of Cyclin-dependent kinase 2-cyclin A at 10 uM concentration of compound dissolved in 100% DMSO using 5''-[gamma-33P]-triphosphate
[16] = target: Hepatocyte growth factor receptor (Homo sapiens) (UniProt P08581); test: In vitro percent inhibition of Met proto-oncogene tyrosine kinase at 10 uM concentration of compound dissolved in 100% DMSO using 5''-[gamma-33P]-triphosphate
[17] = target: Insulin receptor (Homo sapiens) (UniProt P06213); test: In vitro percent inhibition of Insulin receptor at 10 uM concentration of compound dissolved in 100% DMSO using 5''-[gamma-33P]-triphosphate
[18] = target: Tyrosine-protein kinase Lck (Homo sapiens) (UniProt P06239); test: In vitro percent inhibition of p56 Lck tyrosine kinase at 10 uM concentration of compound dissolved in 100% DMSO using 5''-[gamma-33P]-triphosphate
[19] = target: T2, Tyrosine-protein kinase transforming protein Abl (Abelson murine leukemia virus) (UniProt P00521); test: In vitro percent inhibition of v-Abl tyrosine kinase at 10 uM concentration of compound dissolved in 100% DMSO using 5''-[gamma-33P]-triphosphate
T2 sequence (whole entry): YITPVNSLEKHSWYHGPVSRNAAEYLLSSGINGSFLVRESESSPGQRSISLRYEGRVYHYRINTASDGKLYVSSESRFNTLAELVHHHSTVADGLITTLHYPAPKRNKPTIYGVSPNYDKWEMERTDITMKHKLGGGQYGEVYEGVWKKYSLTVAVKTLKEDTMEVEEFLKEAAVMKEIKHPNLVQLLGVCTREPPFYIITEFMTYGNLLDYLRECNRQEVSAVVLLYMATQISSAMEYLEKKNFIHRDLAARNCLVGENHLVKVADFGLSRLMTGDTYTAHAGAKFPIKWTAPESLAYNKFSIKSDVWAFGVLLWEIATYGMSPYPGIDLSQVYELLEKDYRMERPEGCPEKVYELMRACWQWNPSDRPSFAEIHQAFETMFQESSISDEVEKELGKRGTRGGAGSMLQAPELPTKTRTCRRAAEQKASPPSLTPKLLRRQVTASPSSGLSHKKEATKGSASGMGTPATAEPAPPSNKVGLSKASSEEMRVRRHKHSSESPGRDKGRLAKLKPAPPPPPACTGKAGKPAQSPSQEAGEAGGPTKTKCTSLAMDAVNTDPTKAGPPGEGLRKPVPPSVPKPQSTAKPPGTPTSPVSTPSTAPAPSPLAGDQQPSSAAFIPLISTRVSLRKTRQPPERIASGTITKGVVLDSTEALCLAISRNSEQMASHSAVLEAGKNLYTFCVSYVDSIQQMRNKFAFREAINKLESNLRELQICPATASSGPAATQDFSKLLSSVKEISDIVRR

[20] = target: Mitogen-activated protein kinase 8 (Homo sapiens) (UniProt P45983); test: In vitro percent inhibition of c-Jun N-terminal kinase 1-alpha 1 at 10 uM concentration of compound dissolved in 100% DMSO using 5''-[gamma-33P]-triphosphate

Sequence of Mitogen-activated protein kinase 3 (Homo sapiens) (P27361 whole entry): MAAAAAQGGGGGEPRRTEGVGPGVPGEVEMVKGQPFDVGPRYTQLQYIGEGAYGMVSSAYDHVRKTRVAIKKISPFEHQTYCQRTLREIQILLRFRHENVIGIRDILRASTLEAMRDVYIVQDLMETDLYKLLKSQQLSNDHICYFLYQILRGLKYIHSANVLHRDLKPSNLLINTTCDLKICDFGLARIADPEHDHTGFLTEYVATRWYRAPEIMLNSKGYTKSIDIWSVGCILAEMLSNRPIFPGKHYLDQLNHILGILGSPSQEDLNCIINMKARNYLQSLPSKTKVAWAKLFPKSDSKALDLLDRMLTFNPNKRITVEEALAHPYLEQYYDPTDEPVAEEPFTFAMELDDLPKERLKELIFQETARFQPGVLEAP
Sequence of Proto-oncogene tyrosine-protein kinase Src (Homo sapiens) (P12931 2-536 limits assumed): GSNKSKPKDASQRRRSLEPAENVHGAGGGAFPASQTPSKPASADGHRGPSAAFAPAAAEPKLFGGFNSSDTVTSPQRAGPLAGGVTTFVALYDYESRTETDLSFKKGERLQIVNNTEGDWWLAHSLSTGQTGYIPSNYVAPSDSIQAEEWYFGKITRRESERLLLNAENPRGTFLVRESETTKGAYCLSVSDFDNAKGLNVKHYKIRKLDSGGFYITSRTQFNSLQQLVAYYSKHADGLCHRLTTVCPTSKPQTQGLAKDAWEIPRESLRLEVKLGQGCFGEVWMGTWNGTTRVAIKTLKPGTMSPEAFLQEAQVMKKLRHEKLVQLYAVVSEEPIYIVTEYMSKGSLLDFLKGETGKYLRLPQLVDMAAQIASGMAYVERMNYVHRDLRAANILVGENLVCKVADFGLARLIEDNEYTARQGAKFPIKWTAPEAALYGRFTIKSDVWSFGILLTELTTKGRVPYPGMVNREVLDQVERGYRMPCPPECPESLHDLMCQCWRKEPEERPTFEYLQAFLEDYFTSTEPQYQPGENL

| SMILES | inhibition [1] [%] | inhibition [2] [%] | inhibition [3] [%] | inhibition [4] [%] | inhibition [5] [%] | inhibition [6] [%] | logP [7] | inhibition [8] [%] | inhibition [9] [%] | inhibition [10] [%] | inhibition [11] [%] | inhibition [12] [%] | inhibition [13] [%] | inhibition [14] [%] | inhibition [15] [%] | inhibition [16] [%] | inhibition [17] [%] | inhibition [18] [%] | inhibition [19] [%] | inhibition [20] [%] |
| --- | --- | --- | --- | --- | --- | --- | --- | --- | --- | --- | --- | --- | --- | --- | --- | --- | --- | --- | --- | --- |
| O=C(O)c1ccc(-c2nc3cc4ccccc4cc3nc2-c2ccc(C(=O)O)s2)s1 | 20 | 49 | 16 | 12 | 7 | 23 | 5.03 | 29 | 31 | 49 | 19 | 12 | 14 | 51 | 3 | -4 |  |  |  |  |
| Cn1c(=O)c2[nH]c(-c3ccccc3)nc2n(C)c1=O [8-PHENYL THEOPHYLLINE] |  |  |  |  |  |  | 2.05 |  |  |  |  |  |  |  |  |  |  |  |  |  |
| COc1cc2nc3nc(-c4cccs4)c(-c4cccs4)nc3nc2cc1OC | 9 | 20 | 8 | -4 | 2 | 5 | 4.79 | 10 | 48 | 20 | -1 | -4 | -2 | 4 | 27 | 12 | -7 | -7 | -1 |  |
| O=C(O)CCCc1ccc(-c2nc3cc4ccccc4cc3nc2-c2ccc(CCCC(=O)O)s2)s1 | 35 | 6 | 12 |  | 24 | 37 | 4.77 | 43 | 20 | 32 | 0 | 33 | 18 | 13 | 7 | 7 |  | 9 |  |  |
| Cn1c(=O)c2[nH]cnc2n(C)c1=O [THEOPHYLLINE] |  |  |  |  |  |  | -0.05 |  |  |  |  |  |  |  |  |  |  |  |  |  |
| COC(=O)Cc1ccc(-c2nc3cc4ccccc4cc3nc2-c2ccc(CC(=O)OC)s2)s1 |  |  |  |  |  |  | 4.95 |  |  |  |  |  |  |  |  |  |  |  |  |  |
| COC(=O)CCc1ccc(-c2nc3cc4ccccc4cc3nc2-c2ccc(CCC(=O)OC)s2)s1 | 19 | 13 | 18 | 14 | 14 | 13 | 5 | 31 | 31 | 32 | 5 | 12 | 11 | 7 | 12 | 39 |  | 5 | -8 | -10 |
| c1ccc(-c2nnn[nH]2)cc1 |  |  |  |  |  |  | 1.42 |  |  |  |  |  |  |  |  |  |  |  |  |  |
| c1ccc2[nH]cnc2c1 [BENZIMIDAZOLE] |  |  |  |  |  |  | 1.55 |  |  |  |  |  |  |  |  |  |  |  |  |  |
| COc1cc2c(c(OC)c1OC)-c1ccc(OC)c(=O)cc1[C@@H](NC(C)=O)CC2 [COLCHICINE] |  |  |  |  |  |  | 0.92 |  |  |  |  |  |  |  |  |  |  |  |  |  |
| O=C(O)C1COc2cc3nc(-c4cccs4)c(-c4cccs4)nc3cc2O1 (configuration not stated) | 19 | 39 | 12 | 4 | 15 | 5 | 4.7 | 14 | 14 | 39 | -1 | 4 | -1 | 33 | 10 | -2 |  | -2 | -6 |  |
| CCC(=O)c1ccccc1 [PROPIOPHENONE] |  |  |  |  |  |  | 2.2 |  |  |  |  |  |  |  |  |  |  |  |  |  |
| COc1cc2nc(-c3cccs3)c(-c3cccs3)nc2cc1OC | 10 | 10 | 11 | -6 | -1 | 7 | 4 | 10 | 15 | 10 | 2 | -6 | -9 |  | -5 | -3 | -7 | 9 | -2 |  |
| CCCC(=O)c1ccccc1 [BUTYROPHENONE] |  |  |  |  |  |  | 2.73 |  |  |  |  |  |  |  |  |  |  |  |  |  |
| O=C(O)Cc1csc(-c2nc3cc4ccccc4cc3nc2-c2cc(CC(=O)O)cs2)c1 | 29 | 54 | 40 | 17 | 18 | 22 | 4.11 | 37 | 27 | 54 | 18 | 17 | 10 | 22 | -5 | 21 |  | 8 | -7 |  |
| COC(=O)Cc1csc(-c2nc3cc4ccccc4cc3nc2-c2cc(CC(=O)OC)cs2)c1 | 8 | 11 | 17 | 1 | 3 | 9 | 5 | 14 | 13 | 11 | 4 | 1 | -5 | 2 | -4 | -2 |  | 4 | -10 | -10 |
| CCCCC(=O)c1ccccc1 [VALEROPHENONE] |  |  |  |  |  |  | 3.26 |  |  |  |  |  |  |  |  |  |  |  |  |  |
